For 1 substance, EC50 results are on record in US9024022B2, “Substrates of O6-alkylguanine-DNA alkyltransferase and mutants thereof” (Cis Bio International, priority 2008, dated 2015).

The target of this assay is T1, N-AGT enzyme (AGT-mGluR2 fusion protein) (Homo sapiens, UniProt P16455).
T1 construct: fused on or other part: type 2 metabotropic glutamate receptor (mGluR2)
Briefly: Enzymatic reactivity test in a cell model, N-AGT mutant. Format: cell-based. As to conditions: living cells, N-AGT mutant; labeling 1 h at 37° C.; read-out: half saturation concentration of the enzyme. On the procedure:
This procedure makes it possible to test the reactivity of substrates according to the invention with an AGT expressed by COS 7 cells in the form of a fusion protein with the type 2 glutamate transmembrane receptor (mGluR2).
Various mutants of AGT were analyzed in this study: SNAP-tag-ST26 or CLIP-tag from Covalys or the N-AGT mutant described by Gronemeyer et al. (Protein Engineering, Design & Selection, Vol. 19, No. 7, pp. 309-316, 2006).
The transient transfection of the cells is carried out by electroporation using a Biorad electroporator: 10 million cells are transfected by 1 μg SNAP-tag-mGluR2+3 μg pcdna3.1 in a final volume of 300 μl. The electroporation parameters are: 280 V & 1000 μF. […]
The labeling of the AGT-mGluR2 fusion protein takes place in 100 μl of complete medium with increasing concentrations of BG-fluorophore or BG-L1-A-L2-fluorophore according to the invention for 1 h at 37° C. Before the reading, 4 washing operations are carried out with 100 μl of Tris-Krebs.
For the substrates bearing fluorophores ATTO647 (example 2), DY647 (examples 1 and 5) and fluorescein-5-EX (example 3), the reading is carried out in 100 μl of Tris-Krebs in direct fluorescence at 682 nm on a Rubystar machine, and at 520 nm for those bearing fluorescein-5-EX (example 3). […]

T1 sequence (P16455 whole entry, looked up, the tested form may be a part): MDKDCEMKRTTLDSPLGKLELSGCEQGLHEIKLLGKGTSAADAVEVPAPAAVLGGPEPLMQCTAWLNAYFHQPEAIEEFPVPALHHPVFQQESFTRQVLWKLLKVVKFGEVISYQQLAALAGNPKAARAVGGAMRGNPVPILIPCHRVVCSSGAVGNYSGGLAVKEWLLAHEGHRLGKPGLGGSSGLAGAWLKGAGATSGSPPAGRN

Take “Tb(KR)-methylbenzamide-BG [BG-methylbenzamide-Tb(KR)]”: the EC50 stood at 6.4 nM.
